Values joined by “and” are separate entries in the source; they are usually repeats but may differ in a detail not shown here. Identical values can stand only once. Like-named read-outs stand apart in the source and are kept apart here.
Experiments:
GlyT-1 = target: T1, GlyT-1 (Homo sapiens, UniProt P48067); experiment: GlyT-1 inhibition, human; format: cell-based
T1 sequence (P48067 1-706): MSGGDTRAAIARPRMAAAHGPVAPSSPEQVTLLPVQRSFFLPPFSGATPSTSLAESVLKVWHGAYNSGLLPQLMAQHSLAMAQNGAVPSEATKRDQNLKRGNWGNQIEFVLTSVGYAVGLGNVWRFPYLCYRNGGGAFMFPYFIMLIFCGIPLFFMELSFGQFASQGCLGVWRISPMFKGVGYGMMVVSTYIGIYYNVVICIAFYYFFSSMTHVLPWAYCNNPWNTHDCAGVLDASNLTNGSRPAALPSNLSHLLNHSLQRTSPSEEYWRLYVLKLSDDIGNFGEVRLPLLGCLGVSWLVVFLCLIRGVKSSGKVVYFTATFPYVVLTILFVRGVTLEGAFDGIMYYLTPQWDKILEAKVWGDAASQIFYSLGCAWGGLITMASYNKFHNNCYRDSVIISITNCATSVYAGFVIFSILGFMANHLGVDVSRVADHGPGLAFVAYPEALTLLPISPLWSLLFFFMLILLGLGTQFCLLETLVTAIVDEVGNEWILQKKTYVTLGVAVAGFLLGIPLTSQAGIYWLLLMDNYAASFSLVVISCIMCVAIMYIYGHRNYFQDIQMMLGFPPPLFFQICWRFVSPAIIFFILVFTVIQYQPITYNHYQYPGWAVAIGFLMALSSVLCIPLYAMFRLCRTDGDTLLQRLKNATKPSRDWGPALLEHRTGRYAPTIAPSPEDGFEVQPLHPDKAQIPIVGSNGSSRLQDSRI
Procedure: On day 1 mammalian cells, (Flp-in™-CHO), transfected with mGlyT-1b cDNA , were plated at the density of 40,000 cells/well in complete F-12 medium, without hygromycin in 96-well culture plates. On day 2, the medium was aspirated and the cells were washed twice with uptake buffer (UB). The cells were then incubated for 20 min at 22° C. with either (i) no potential competitor, (ii) 10 mM non-radioactive glycine , (iii) a concentration of a potential inhibitor. […] A solution was then immediately added containing [^3H]-glycine 60 nM (11-16 Ci/mmol) and 25 µM non-radioactive glycine. The plates were incubated with gentle shaking and the reaction was stopped by aspiration of the mixture and washing (three times) with ice-cold US. The cells were lysed with scintillation liquid, shaken 3 hours and the radioactivity in the cells was coounted using a scintillation counter.

mGlyT-1b = target: T2, mGlyT-1b (Mus musculus, UniProt P28571); experiment: Glycine uptake inhibition assay (mGlyT-1b); format: cell-based
T2 construct: host or cells: Flp-in-CHO
T2 sequence (P28571 1-651 isoform P28571-2): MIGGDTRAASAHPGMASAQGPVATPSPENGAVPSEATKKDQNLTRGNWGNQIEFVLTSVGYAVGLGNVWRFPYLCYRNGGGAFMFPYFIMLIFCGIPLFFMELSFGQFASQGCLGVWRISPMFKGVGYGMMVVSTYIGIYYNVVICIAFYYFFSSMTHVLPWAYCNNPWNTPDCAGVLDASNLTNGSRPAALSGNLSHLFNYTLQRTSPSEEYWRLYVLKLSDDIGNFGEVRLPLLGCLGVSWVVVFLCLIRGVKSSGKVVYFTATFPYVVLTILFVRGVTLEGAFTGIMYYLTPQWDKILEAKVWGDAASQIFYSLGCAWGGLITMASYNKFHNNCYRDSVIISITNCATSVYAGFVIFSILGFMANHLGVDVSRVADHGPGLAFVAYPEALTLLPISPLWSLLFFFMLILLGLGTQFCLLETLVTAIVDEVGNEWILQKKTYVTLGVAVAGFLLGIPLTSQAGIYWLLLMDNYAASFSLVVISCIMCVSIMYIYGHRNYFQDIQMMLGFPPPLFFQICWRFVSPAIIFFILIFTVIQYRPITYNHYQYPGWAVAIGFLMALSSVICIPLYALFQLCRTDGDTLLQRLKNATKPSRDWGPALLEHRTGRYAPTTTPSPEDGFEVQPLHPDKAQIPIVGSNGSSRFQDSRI
Procedure: DMEM complete medium: Nutrient mixture F-12 (Gibco Life-technologies), fetal bovine serum (FBS) 5%, (Gibco life technologies), Penicillin/Streptomycinl % (Gibco life technologies), Hygromycin 0.6 mg/ml (Gibco life technologies), Glutamine 1 mM Gibco life technologies)
Uptake buffer (UB): 150 mM NaCl, 10 mM Hepes-Tris, pH 7.4, 1 mM CaCl2, 2.5 mM KCl, 2.5 mM MgSO4, 10 mM (+) D-glucose.
Flp-in™-CHO (Invitrogen Cat no. R758-07)cells stably transfected with mGlyT1b cDNA.
Glycine Uptake Inhibition Assay (mGlyT-1b)

`Cc1ccc(C2CNC(=O)C23CCN(C2(c4ccc(F)cc4)CCCCC2)CC3)cc1` (racemic) [Example 52, rac 8-[1-(4-Fluoro-phenyl)-cyclohexyl]4-p-tolyl-2,8-diaza-spiro [4.5]decan-1-one] was tested, and the IC50 (GlyT-1; GlyT-1 Racemat Mouse/human) was 73 nM.

With `O=C1NCC(c2ccc(F)cc2)C12CCN(C1(c3ccc(F)cc3)CCCCCC1)CC2` (racemic) [Example 50, rac4-(4-Fluoro-phenyl)-8-[1-(4-fluoro-phenyl)-cycloheptyl]-2,8-diaza-spiro[4.5]decan-1-one] the IC50 (mGlyT-1b) was 81 nM, the IC50 (mGlyT-1b; second-listed enantiomer, mouse value (before the slash), read-out: GlyT-1 Enant. Mouse/human) was 153 nM and the IC50 (GlyT-1; racemate, human value (after the slash), read-out: GlyT-1 Racemat Mouse/human) was 132 nM.

With `O=C1NCC(c2ccc(F)cc2)C12CCN(C1(c3ccsc3)CCCCC1)CC2` (racemic) [Example 38, rac-4-(4-Fluoro-phenyl)-8-(1-thiophen-3-yl-cyclohexyl)-2,8-diaza-spiro[4.5]decan-1-one] the IC50 (mGlyT-1b; GlyT-1 Enant. Mouse/human) was 99 nM and 213 nM and the IC50 (mGlyT-1b; GlyT-1 Racemat Mouse/human) was 99 nM.

— US7265126B2, “Diaza-spiropiperidine derivatives” (Hoffmann-La Roche Inc., priority 2004, dated 2007)
